Data set [1] relates to primary cultured guinea-pig urinary bladder (GPB) cells. Description: Membrane hyperpolarization (MHP) assay, DiBAC(4)3 fluorescence on FLIPR. The class given is cell-based. On the procedure: Compounds were evaluated for potassium channel opening activity using primary cultured guinea-pig urinary bladder (GPB) cells.
For the preparation of urinary bladder smooth muscle cells, urinary bladders were removed from male guinea-pigs (Hartley, Charles River, Wilmington, Mass.) weighing 300-400 g and placed in ice-cold Ca^2+-free Krebs solution (composition, mM: KCl, 2.7, KH2PO4, 1.5; NaCl, 75, Na2HPO4, 9.6; Na2HPO4. 7H2O, 8; MgSO4, 2; glucose, 5; HEPES, 10; pH 7.4). Cells were isolated by enzymatic dissociation as previously described with minor modifications (Klockner and Isenberg, Pflugers Arch. (1985), 405, 329-339), hereby incorporated by reference. The bladder was cut into small sections and incubated in 5 mL of the Kreb's solution containing 1 mg/mL collagenase (Sigma, St. Louis, Mo.) and 0.2 mg/mL pronase (Calbiochem, La Jolla, Calif.) with continuous stirring in a cell incubator for 30 minutes. The mixture was then centrifuged at 1300×g for 5 minutes, and the pellet resuspended in Dulbecco's PBS (GIBCO, Gaithersburg, Md.) and recentrifuged to remove residual enzyme. The cell pellet was resuspended in 5 mL growth media (composition: Dulbecco's modified Eagle's medium supplemented with 10% fetal bovine serum, 100 units/mL penicillin, 100 units/mL streptomycin and […] amphotericin B) and further dissociated by pipetting the suspension through a flame-polished Pasteur pipette and passing it through a polypropylene mesh membrane (Spectrum, Houston, Tex.). The cell density was adjusted to 100,000 cells/mL by resuspension in growth media Cells were plated in clear-bottomed black 96-well plates (Packard) for membrane potential studies at a density of 20,000 cells/well and maintained in a cell incubator with 90% air: 10% CO2 until confluent. Cells were confirmed to be of smooth muscle type by cytoskeletal staining using a monoclonal mouse anti human-α-smooth muscle actin (Biomeda, Foster City, Calif.).
Functional activity at potassium channels was measured by evaluating changes in membrane potential using the bis-oxonol dye DiBAC(4)3 (Molecular Probes) in a 96-well cell-based kinetic assay system, Fluorescent Imaging Plate Reader (FLIPR) (K. S. Schroeder et al., J. Biomed. Screen., v. 1 pp. 75-81 (1996)), hereby incorporated by reference. DiBAC(4)3 is an anionic potentiometric probe which partitions between cells and extracellular solution in a membrane potential-dependent manner. With increasing membrane potential (for example, K^+ depolarization), the probe further partitions into the cell; this is measured as an increase in fluorescence due to dye interaction with intracellular lipids and proteins. Conversely, decreasing membrane potential (hyperpolarization by potassium channel openers) evokes a decrease in fluorescence.
Confluent guinea-pig urinary bladder cells cultured in black clear-bottomed 96-well plates were rinsed twice with […] assay buffer (composition, mM: HEPES, 20; NaCl, 120; KCl, 2; CaCl2, 2, MgCl2, 1, glucose, 5; pH 7.4 at 25° C.) containing 5 μM DiBAC(4)3 and incubated with […] of the buffer in a cell incubator for 30 minutes at 37° C. to ensure dye distribution across the membrane. After recording the baseline fluorescence for 5 minutes, the reference or test compounds, prepared at 10 times the concentration in the assay buffer, were added directly to the wells. Changes in fluorescence were monitored for an additional 25 minutes. Hyperpolarization responses were corrected for any background noise and were normalized to the response observed with 10 μM of the reference compound P1075 (assigned as 100%), a potent opener of smooth muscle KATP channels (Quast et al., Mol. Phanmacol., v. 43 pp. 474-481 (1993)).
Routinely, five concentrations of P1075 or test compounds (log or half-log dilutions) were evaluated and the maximal steady-state hyperpolarization values (expressed as % relative to P1075) plotted as a function of concentration. […]

For data set [2], the system named is Landrace pig bladder strips. Description: Functional potassium channel opening activity in isolated, field-stimulated bladder strips. On the procedure: Compound were evaluated for functional potassium channel opening activity using tissue strips obtained from Landrace pig bladders.
Landrace pig bladders were obtained from female Landrace pigs of 9-30 kg. Landrace pig were euthanized with an intraperitoneal injection of pentobarbital solution, Somlethal ®, J. A. Webster Inc. Sterling Mass. The entire bladder was removed and immediately placed into Krebs Ringer bicarbonate solution (composition, mM: NaCl, 120; NaHCO3, 20; dextrose, 11; KCl, 4.7; CaCl2, 2.5; MgSO4, 1.5; KH2PO4, 1.2; K2EDTA, 0.01, equilibrated with 5% CO2/95% O2 pH 7.4 at 37° C.). Propranolol (0.004 mM) was included in all of the assays to block β-adrenoceptors. The trigonal and dome portions were discarded. Strips 3-5 mm wide and 20 mm long were prepared from the remaining tissue cut in a circular fashion. The mucosal layer was removed. One end was fixed to a stationary glass rod and the other to a Grass FT03 transducer at a basal preload of 1.0 gram. Two parallel platinum electrodes were included in the stationary glass rod to provide field stimulation of 0.05 Hz, 0.5 milli-seconds at 20 volts. This low frequency stimulation produced a stable twitch response of 100-500 centigrams. Tissues were allowed to equilibrate for at least 60 minutes and primed with 80 mM KCl. A control concentration response curve (cumulative) was generated for each tissue using the potassium channel opener P1075 as the control agonist. […] After a 60 minute rinsing period, a concentration response curve (cumulative) was generated for the test agonist in the same fashion as that used for control agonist P1075. The maximal efficacy of each compound (expressed as % relative to P1075) is reported. The amount of agent necessary to cause 50% of the agent's maximal response (ED50) was calculated using “ALLFIT” (DeLean et al., Am. J. Physiol., 235, E97 (1980)), hereby incorporated by reference. Agonist potencies were also expressed as an index relative to P1075. The index was calculated by dividing the ED50 for P1075 by the ED50 for the test agonist in a given tissue. Each tissue was used for only one test agonist, and the indices obtained from each tissue were averaged to provide an average index of potency.

Consider `CC(C)(C)C(NC(=O)c1cccc(Cl)c1)Nc1c(Nc2cccnc2Cl)c(=O)c1=O` (stereo not shown) [Example 95, 3-Chloro-N-[1-({2-[(2-chloropyridin-3-yl)amino]-3,4-dioxo-1-cyclobuten-1-yl}amino)-2,2-dimethylpropyl]benzamide], for which the melting point (as a rule, the temperature, or range, at which the solid turns liquid) lay within 213 to 214 °C. The same measure, in the same setting: with `COc1ncccc1Nc1c(NC(NC(=O)c2cccc(C)c2)C(C)(C)C)c(=O)c1=O` (stereo not shown) [Example 81, N-[1-({2-[(2-Methoxypyridin-3-yl)amino]3,4-dioxo-1-cyclobuten-1-yl}amino)-2,2-dimethylpropyl]-3-methylbenzamide] the figure was 224 to 226 °C; with `CC(C)(C)C(NC(=O)c1cc(Cl)cc(Cl)c1)Nc1c(Nc2cncc(C(F)(F)F)c2)c(=O)c1=O` (stereo not shown) [Example 53, 3,5-Dichloro-N-{1-[(3,4-dioxo-2-{[5-(trifluoromethyl)pyridin-3-yl]amino}-1-cyclobuten-1-yl)amino]-2,2-dimethylpropyl}benzamide], 233 to 234 °C; with `CC(C)(C)C(NC(=O)c1cc(F)cc(F)c1)Nc1c(Nc2cccnc2Cl)c(=O)c1=O` (stereo not shown) [Example 110A, N-(1-{[3,4-Dioxo-2-(2-chloro3-pyridinylamino)-1-cyclobuten-1-yl]amino}-2,2-dimethylpropyl)-3,5-difluorobenzamide], 215 to 217 °C. On the same count and under the same terms, the value for `CC(C)(C)C(NC(=O)c1cc(F)cc(F)c1)Nc1c(Nc2cccnc2Cl)c(=O)c1=O` (single isomer, unassigned; (+)) [Example 110, (+) N-(1-{[3,4-Dioxo-2-(2-chloro3-pyridinylamino)-1-cyclobuten-1-yl]amino}-2,2-dimethylpropyl)-3,5-difluorobenzamide] was 215 to 216 °C. Take `CC(C)(Cc1ccccc1)C(NC(=O)c1ccc(Cl)cc1)Nc1c(Nc2cccnc2)c(=O)c1=O` (stereo not shown) [Example 18, 4-Chloro-N-(-1-{[3,4-dioxo-2-(3-pyridinylamino)-1-cyclobuten-1-yl]amino}-2,2-dimethyl-3-phenylpropyl)benzamide]: the EC50 amounted to 0.51 µM in data set [1] (Cavia porcellus, concentration eliciting 50% of the maximal response of the test sample) and 17 µM in data set [2] (Sus scrofa, amount causing 50% of the agent's maximal response, field stimulation 0.05 Hz, 0.5 ms, 20 volts, read-out: ED50 (the source's name)). Moreover, the “Maximal Response (%P1075)” value in data set [1] (maximal steady-state hyperpolarization, normalized to response with 10 μM P1075 (100%)) turned out to be 97 %P1075. Moreover, the Index in data set [2] (ED50 for P1075 divided by ED50 for test agonist in a given tissue, averaged) is listed as 0.055. The Emax (commonly the maximal effect, on the per cent scale that the assay sets) in data set [2] (Sus scrofa, maximal efficacy on stimulated twitch, relative to P1075) was determined as 62%.

`COc1ncccc1Nc1c(NC(NC(=O)c2cc(F)cc(F)c2)C(C)(C)C)c(=O)c1=O` (stereo not shown) [Example 82, 3,5-Difluoro-N-[1-({2-[(2-methoxypyridin-3-yl)amino]-3,4-dioxo-1-cyclobuten-1-yl}amino)-2,2-dimethylpropyl]benzamide] gave a melting point of 221 to 223 °C.

`COc1ncccc1Nc1c(NC(NC(=O)c2cccc(C)c2)C(C)(C)Cc2ccccc2)c(=O)c1=O` (stereo not shown) [Example 83, N-[1-({2-[(2-Methoxypyridin-3-yl)amino]-3,4-dioxo-1-cyclobuten-1-yl}amino)-2,2-dimethyl-3-phenylpropyl]-3-methylbenzamide] registered a melting point of 233 to 235 °C. With `CC(C)(C)C(NC(=O)c1ccc(I)cc1)NS(=O)(=O)Nc1cccnc1` (stereo not shown) [Example 34, N-(2,2-Dimethyl-1-{[(3-pyridinylamino)sulfonyl]amino}propyl)-4-iodobenzamide], the melting point lay in the range of 177 to 178 °C.

Source of the values: patent US6495576B2, “Aminal diones as potassium channel openers” (Abbott Laboratories, priority 2001, dated 2002).
